For assay [1], the target named is T1, recombinant CK2A1 (Homo sapiens, UniProt P68400).
T1 construct: purchased Invitrogen
The assay is described as follows: CK2 kinase assay (CK2A1), [γ-33P]ATP filter-binding. It counts as biochemical. The conditions noted are these: recombinant CK2A1 10 nM, ATP 25 μM, 10 μM peptide substrate, 30° C. 1 h. The procedure: (§1) The effectiveness of compounds of the present invention as inhibitors of protein kinases can be readily tested by assays known to those skilled in the art. For example, in vitro protein kinase assays may be conducted with a relevant purified protein kinase and an appropriate synthetic substrate to determine the inhibitory activities of the compounds. […] Reaction mixtures were incubated at 30° C. for 1 h, and reaction products were captured by binding to phosphocellulose (P81) filter plates. Incorporation of radioactive phosphate into the peptide substrate was determined by liquid scintillation counting. The potency of compounds in inhibiting CK2 is expressed as IC50, defined as the concentrations of compounds required to inhibit the enzymatic activity by 50%.

Assay [2] concerns the target T2, recombinant CK2A2 (Homo sapiens, UniProt P19784).
T2 construct: purchased Upstate Biotechnology
The assay is described as follows: CK2 kinase assay (CK2A2), [γ-33P]ATP filter-binding. It counts as biochemical. The conditions noted are these: recombinant CK2A2 5 nM, ATP 5 μM, 10 μM peptide substrate, 30° C. 1 h. As for the experimental part: as §1

The test system of assay [3] is HCT116. The experiment in a line: Cell proliferation inhibition assay (MTT, CellTiter96). It counts as cell-based. The conditions noted are these: Homo sapiens, HCT-116; HCT116 cells, 72 h with compound, MTT readout. The procedure:
B. Cell Proliferation Inhibition Assay
Compounds were evaluated for their ability to inhibit cell proliferation, using an assay that measures mitochondrial metabolic activity, that is directly correlated with cell numbers. Cells were plated at 2000 cells/well in 96-well plates and were cultured for 24 h in RPMI-1640 supplemented with 2% fetal bovine serum, before test compounds were added. Compounds were diluted in culture medium such that the final concentration of dimethyl sulfoxide never exceeded 1%. Following the addition of compounds, the cells were cultured for an additional 72 h before cell viability was determined by measuring the conversion of 3-(4,5-dimethylthiazol-2-yl)-2,5-diphenyltetrazolium bromide (MTT) dye using the CellTiter96 kit (Promega).

Molecules are shown by their SMILES.

The term IC50 denotes the concentration at which inhibition is half-maximal.

T2 sequence (P19784 whole entry): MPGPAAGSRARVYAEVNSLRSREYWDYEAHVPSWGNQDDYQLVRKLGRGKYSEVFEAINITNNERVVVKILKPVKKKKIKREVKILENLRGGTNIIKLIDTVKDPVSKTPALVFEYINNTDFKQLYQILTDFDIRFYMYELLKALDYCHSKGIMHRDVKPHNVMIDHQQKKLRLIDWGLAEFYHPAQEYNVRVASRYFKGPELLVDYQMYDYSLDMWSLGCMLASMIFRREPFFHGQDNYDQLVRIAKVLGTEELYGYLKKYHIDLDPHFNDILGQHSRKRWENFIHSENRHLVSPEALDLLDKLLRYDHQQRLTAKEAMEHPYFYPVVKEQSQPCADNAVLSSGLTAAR
T1 sequence (P68400 whole entry): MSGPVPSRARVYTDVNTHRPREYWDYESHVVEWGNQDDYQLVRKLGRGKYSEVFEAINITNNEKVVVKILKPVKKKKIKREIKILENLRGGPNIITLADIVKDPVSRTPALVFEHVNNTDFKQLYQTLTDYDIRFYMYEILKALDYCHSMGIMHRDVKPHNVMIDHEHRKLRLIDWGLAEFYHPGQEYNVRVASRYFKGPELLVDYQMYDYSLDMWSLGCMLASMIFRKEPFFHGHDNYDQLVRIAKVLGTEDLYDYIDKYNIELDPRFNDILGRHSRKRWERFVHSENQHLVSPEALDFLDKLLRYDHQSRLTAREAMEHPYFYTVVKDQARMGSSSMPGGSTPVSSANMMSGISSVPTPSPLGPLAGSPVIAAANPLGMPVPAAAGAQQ

For the compound `COCC(=O)N[C@H]1CC[C@H](Nc2cc(NC3CC3)c3ncc(C(=O)Nc4ccnc(Cl)c4)n3n2)CC1` [Example 167, N-(2-chloro-4-pyridinyl)-8-(cyclopropylamino)-6-((trans-4-((methoxyacetyl)amino)cyclohexyl)amino) imidazo[1,2-b]pyridazine-3-carboxamide], the IC50 in assay [1] was 26.5 nM; in assay [2] it was 0.4 nM; in assay [3], greater than 2500 nM.

In the case of `CC(C)n1ccc(Nc2cc(N[C@H]3CC[C@H](NC(=O)CC#N)CC3)nn3c(C(=O)Nc4ccnc(Cl)c4)cnc23)n1` [Example 559, N-(2-chloro-4-pyridinyl)-6-((trans-4-((cyanoacetyl)amino)cyclohexyl)amino)-8-((1-isopropyl-1H-pyrazol-3-yl)amino)imidazo[1,2-b] pyridazine-3-carboxamide], the IC50 in assay [1] was determined as 5.5 nM; in assay [2], 1 nM; in assay [3] it was 80 nM.

Regarding `N#CCC(=O)N[C@H]1CC[C@H](Nc2cc(NC3CC3)c3ncc(C(=O)Nc4ccnc(F)c4)n3n2)CC1` [Example 138, 6-((trans-4-((cyanoacetyl)amino)cyclohexyl)amino)-8-(cyclopropylamino)-N-(2-fluoro-4-pyridinyl)imidazo [1,2-b]pyridazine-3-carboxamide], the IC50 in assay [1] amounted to 21 nM; in assay [2], 9 nM; in assay [3] it was 610 nM.

Regarding `N[C@H]1CC[C@H](Nc2cc(Nc3cccc(N4CCNCC4)n3)c3ncc(C(=O)Nc4ccncc4F)n3n2)CC1` [Example 481, 6-((trans-4-aminocyclohexyl)amino)-N-(3-fluoro-4-pyridinyl)-8-((6-(1-piperazinyl)-2-pyridinyl)amino)imidazo [1,2-b]pyridazine-3-carboxamide], the IC50 in assay [1] was 121 nM; in assay [2] it was 34 nM; in assay [3], greater than 2500 nM.

For the compound `O=C(Nc1ccnc(F)c1)c1cnc2c(NC3CC3)cc(N[C@H]3CC[C@H](N4CCOCC4)CC3)nn12` [Example 27, 8-(cyclopropylamino)-N-(2-fluoropyridin-4-yl)-6-((trans)-4-morpholinocyclohexylamino)imidazo[1,2-b]pyridazine-3-carboxamide], the figures for the IC50 in assay [1], in assay [2] and in assay [3] were 247 nM, 72 nM and 430 nM, respectively.

As for `N[C@H]1CC[C@H](Nc2cc(NC3CC3)c3ncc(C(=O)Nc4ccncc4)n3n2)CC1` [Example 390, 6-((trans-4-aminocyclohexyl)amino)-8-(cyclopropylamino)-N-4-pyridinylimidazo [1,2-b]pyridazine-3-carboxamide], the IC50 in assay [1] came out at 15 nM; in assay [2], 6 nM; in assay [3], 300 nM.

Take `C[C@H](N)C(=O)N[C@H]1CC[C@H](Nc2cc(NC3CC3)c3ncc(C(=O)Nc4ccnc(F)c4)n3n2)CC1` [Example 134, 6-((trans-4-(L-alanylamino)cyclohexyl)amino)-8-(cyclopropylamino)-N-(2-fluoro-4-pyridinyl)imidazo[1,2-b]pyridazine-3-carboxamide]: the half-inhibitory concentration (IC50) in assay [1] came to 55 nM; in assay [2], 13 nM; in assay [3] it was 170 nM.

Regarding `O=C(Nc1ccncc1F)c1cnc2c(NC3CC3)cc(N[C@H]3CC[C@H](NC(=O)[C@H]4CCCN4)CC3)nn12` [Example 104, 8-(cyclopropylamino)-N-(3-fluoro-4-pyridinyl)-6-((trans-4-(D-prolylamino)cyclohexyl)amino)imidazo[1,2-b]pyridazine-3-carboxamide], the IC50 in assay [1] worked out at 38 nM; in assay [2], 10 nM; in assay [3], 200 nM.

Take `O=C(Nc1ccnc(Cl)c1)c1cnc2c(NC3CC3)cc(NC3CCSCC3)nn12` [Example 571, N-(2-chloro-4-pyridinyl)-8-(cyclopropylamino)-6-(tetrahydro-2H-thiopyran-4-ylamino)imidazo[1,2-b]pyridazine-3-carboxamide]: the results for the IC50 in assay [1], in assay [2] and in assay [3] were 428 nM, 97 nM and 890 nM, respectively.

In the case of `N[C@H]1CC[C@H](Nc2cc(Nc3ncccc3O)c3ncc(C(=O)Nc4ccncc4)n3n2)CC1` [Example 378, 6-((trans-4-aminocyclohexyl)amino)-8-((3-hydroxy-2-pyridinyl)amino)-N-4-pyridinyl-imidazo[1,2-b]pyridazine-3-carboxamide], the IC50 was 205 nM in assay [1], 290 nM in assay [2] and greater than 1000 nM in assay [3].

In the case of `N[C@H]1CC[C@H](Nc2cc(N[C@H]3C[C@@H](CO)C3)c3ncc(C(=O)Nc4ccncc4F)n3n2)CC1` [Example 476, 6-((trans-4-aminocyclohexyl)amino)-N-(3-fluoro-4-pyridinyl)-8-((cis-3-(hydroxymethyl)cyclobutyl)amino) imidazo[l,2-b]pyridazine-3-carboxamide], the IC50 in assay [1] was 43 nM; in assay [2], 46 nM; in assay [3], 2310 nM.

As to `O=C(Nc1ccnc(Cl)c1)c1cnc2c(Nc3ccon3)cc(N[C@H]3CC[C@H](O)CC3)nn12` [Example 549, N-(2-chloro-4-pyridinyl)-6-((trans-4-hydroxycyclohexyl)amino)-8-(3-isoxazolylamino) imidazo[1,2-b]pyridazine-3-carboxamide], the concentration for half-maximal inhibition (IC50) is 26.3 nM in assay [1], 0.03 nM in assay [2] and 20 nM in assay [3].

For the compound `CN[C@H](C)C(=O)N[C@H]1CC[C@H](Nc2cc(NC3CC3)c3ncc(C(=O)Nc4ccnc(Cl)c4)n3n2)CC1` (relative stereo) [Example 154, N-(2-chloro-4-pyridinyl)-8-(cyclopropylamino)-6-((trans-4-((N-methyl-D-alanyl)amino)cyclohexyl)amino)imidazo[1,2-b] pyridazine-3-carboxamide], the figures for the IC50 in assay [1], in assay [2] and in assay [3] were 38.5 nM, 0.2 nM and 210 nM, respectively.

As for `N[C@@H](CO)C(=O)N[C@H]1CC[C@H](Nc2cc(NC3CC3)c3ncc(C(=O)Nc4ccnc(Cl)c4)n3n2)CC1` [Example 197, N-(2-chloro-4-pyridinyl)-8-(cyclopropylamino)-6-((trans-4-(L-serylamino)cyclohexyl)amino)imidazo [1,2-b]pyridazine-3-carboxamide], the values for the IC50 in assay [1], in assay [2] and in assay [3] were 13.5 nM, 0.8 nM and 230 nM, respectively.

Regarding `NCC(=O)N[C@H]1CC[C@H](Nc2cc(NC3CC3)c3ncc(C(=O)Nc4ccncc4F)n3n2)CC1` [Example 124, 8-(cyclopropylamino)-N-(3-fluoro-4-pyridinyl)-6-((trans-4-(glycylamino)cyclohexyl)amino)imidazo[1,2-b]pyridazine-3-carboxamide], the IC50 in assay [1] turned out to be 31 nM; in assay [2], 8 nM; in assay [3] it was 300 nM.

With `NCCCC(=O)N[C@H]1CC[C@H](Nc2cc(NC3CC3)c3ncc(C(=O)Nc4ccnc(F)c4)n3n2)CC1` [Example 143, 6-((trans-4-((4-aminobutanoyl)amino)cyclohexyl)amino)-8-(cyclopropylamino)-N-(2-fluoro-4-pyridinyl)imidazo [1,2-b]pyridazine-3-carboxamide], the IC50 in assay [1] was determined as 199 nM; in assay [2], 70 nM; in assay [3] it was 340 nM.

`CC(C)CN[C@H]1CC[C@H](Nc2cc(NC3CC3)c3ncc(C(=O)Nc4ccnc(Cl)c4)n3n2)CC1` [Example 538, N-(2-chloro-4-pyridinyl)-8-(cyclopropylamino)-6-((trans-4-(isobutylamino)cyclohexyl)amino)imidazo [1,2-b]pyridazine-3-carboxamide]: the IC50 in assay [1] turned out to be 331 nM; in assay [2], 42 nM; in assay [3], 340 nM.

As to `C[C@H](CN)C(=O)N[C@H]1CC[C@H](Nc2cc(NC3CC3)c3ncc(C(=O)Nc4ccnc(Cl)c4)n3n2)CC1` [Example 146, 6-((trans-4-(((2R)-3-amino-2-methylpropanoyl)amino)cyclohexyl)amino) N-(2-chloro-4-pyridinyl)-8-(cyclopropylamino)imidazo [1,2-b]pyridazine-3-carboxamide], the IC50 turned out to be 25.9 nM in assay [1], 1.5 nM in assay [2] and 590 nM in assay [3].

For `Cc1cc(Nc2cc(N[C@H]3CC[C@H](N)CC3)nn3c(C(=O)Nc4ccnc(Cl)c4)cnc23)nn1C` [Example 542, 6-((trans-4-aminocyclohexyl)amino)-N-(2-chloro-4-pyridinyl)-8-((1,5-dimethyl-1H-pyrazol-3-yl)amino)imidazo[1,2-b]pyridazine-3-carboxamide], the results for the IC50 in assay [1], in assay [2] and in assay [3] were 71 nM, 18 nM and 290 nM, respectively.

For the compound `N[C@H]1CC[C@H](Nc2cc(NC3CCC3)c3ncc(C(=O)Nc4ccncc4)n3n2)CC1` [Example 3, 6-((trans-4-aminocyclohexyl)amino)-8-(cyclobutylamino)-N-4-pyridinylimidazo[1,2-b]pyridazine-3-carboxamide], the IC50 was found to be 35 nM in assay [1], 15 nM in assay [2] and 80 nM in assay [3].
